Assay results taken from EP0182317A2, “Antineoplastic agent” (priority 1984, dated 1986).

Assays:
[1] = 50 % lethal dose from toxic deaths in the Ehrlich carcinoma experiment; format: in vivo, male ICR mouse; settings: mice bearing Ehrlich carcinoma, in the abdomen once a day for 7 days; for LD50 at 720 h: mouse, in vivo, ip; for LD50: 43200 min
Description: (§1) About 10^6/0.2 ml of Ehrlich carcinoma cells were placed in an abdomen of each male ICR mouse of 5 weeks old. On the next day the administration of the test sample in the abdomen was started. The test sample was given once a day for 7 days. For an untreated group, a physiological saline solution was given in the same manner as above. […] The T/C percent (T/C x 100) was determined from the average survival periods (days) of the treated group and control group. Further, 50 % lethal dose (LD50) was determined from the number of the mice which died of toxicity of the test samples administered.

[2] = tested on: Ehrlich carcinoma; test: Antineoplastic effect on Ehrlich carcinoma in mice (survival, T/C percent); format: in vivo, male ICR mouse; settings: in the abdomen once a day for 7 days; for response vs control in vivo at 4 mg/kg / response vs control in vivo at 8 mg/kg / response vs control in vivo at 32 mg/kg / response vs control in vivo at 16 mg/kg / response vs control in vivo at 1 mg/kg / response vs control in vivo at 2 mg/kg: Mus musculus, Ehrlich, ip, 720 h
Description: Antineoplastic effect on Ehrlich carcinoma:
as §1

[3] = tested on: Salmonella typhimurium TA-98; test: Antimutagenic properties by Ames method with benzo[a]pyrene as mutagen; format: cell-based; settings: for Number of colonies: B(a)P, S-9 mix; for inhibition rate: inhibition of the mutagenic effect of B(a)P
Description: The experiment was carried out by Ames method using Salmonella typhimurium TA-98 (hereinafter referred to as TA-98) as the test microorganism and benzo[a]pyrene (hereinafter referred to as B(a)P) as the mutagen.
0.1 ml of a solution containing […] of B(a)P and a suitable amount of a compound of the present invention was added to 0.5 ml of S-9 mix and 0.1 ml of a TA-98 suspension. The mixture was incubated at 37°C for 20 min. 2 ml of soft agar was added thereto, mixed well and then spread evenly on a glucose minimum agar medium plate. After the incubation at 37°C for 48 h, the number of colonies formed by the back mutation was counted.
The number of the colonies formed when neither B(a)P nor the compound of the present invention was used was employed as the background.
The antimutagenic properties was shown as the rate of inhibition of the mutagenic effect according to the following formula: [formula]

[4] = dose 4.0 mg/kg, observation period 30 days
[5] = dose 4.0 mg/kg, observation period 60 days
[6] = dose 8.0 mg/kg, observation period 30 days
[7] = dose 8.0 mg/kg, observation period 60 days
[8] = dose 1.0 mg/kg, observation period 60 days
[9] = dose 2.0 mg/kg, observation period 60 days
[10] = dose 2.0 mg/kg, observation period 30 days

Molecule | LD50 at 720 h [1] [mg/kg] | response vs control in vivo at 4 mg/kg [2, 5] [%] | response vs control in vivo at 8 mg/kg [2, 7] [%] | response vs control in vivo at 16 mg/kg ([2]; observation period 60 days) [%] | response vs control in vivo at 2 mg/kg [2, 9] [%] | LD50 [1] | Antineoplastic effect (T/C percent) [2, 9] [%] | Antineoplastic effect (T/C percent) [2, 5] [%] | Antineoplastic effect (T/C percent) [2, 7] [%] | also measured
CCO[Se](=O)c1ccccc1 (stereo not drawn) [Compound 2, ethyl phenylseleninate] | 16 to 32 | 118 | 134 | 193 |  |  |  |  |  | response vs control in vivo at 4 mg/kg [2, 4]: 118%; response vs control in vivo at 8 mg/kg [2, 6]: 134%; response vs control in vivo at 32 mg/kg ([2]; observation period 30 days): 87.9%; response vs control in vivo at 32 mg/kg ([2]; observation period 60 days): 88%; response vs control in vivo at 16 mg/kg ([2]; observation period 30 days): 150%
CC1CO[Se](=O)O1 (stereo not drawn) [Compound 15, 1,2-propanediol selenite] | 8 | 204 | 105 |  | 258 |  |  |  |  | response vs control in vivo at 1 mg/kg [2, 8]: 227%
O=[Se]1OCCCO1 [Compound 17, 1,3-propanediol selenite] | 4 to 8 | 197 | 83 |  | 221 |  |  |  |  | response vs control in vivo at 1 mg/kg [2, 8]: 174%
selenium tetrachloride·pyridine complex [Compound 21] |  |  |  |  |  | 8-16 mg/kg/day x7 | 155 | 217 | 246 | 
CC(Cl)CO[Se](=O)OCC(C)Cl (stereo not drawn) [Compound 13, di(2-chloropropyl) selenite] | 8 to 16 | 234 | 219 | 71 | 190 |  |  |  |  | 
CCCO[Se](=O)OCCC [Compound 10, di(n-propyl) selenite] | 8 | 170 | 102 | 14 | 175 |  |  |  |  | 
CCO[Se](=O)OCC [Compound 9, diethyl selenite] | 4 to 8 | 203 | 201 | 14 | 246 |  |  |  |  | 
2,3-butanediol selenite [Compound 16] |  |  |  |  |  |  | 216 | 261 | 174 | Antineoplastic effect (T/C percent) [2, 8]: 185%
O=[Se](O)c1ccccc1 [Compound 1, phenylseleninic acid] | > 16 | 129 | 141 | 149 | 123 |  |  |  |  | response vs control in vivo at 2 mg/kg [2, 10]: 123%; response vs control in vivo at 4 mg/kg [2, 4]: 129%; response vs control in vivo at 8 mg/kg [2, 6]: 141%; response vs control in vivo at 16 mg/kg ([2]; observation period 30 days): 149%
2,2-dimethyl-1,3-propanediol selenite [Compound 18] |  |  |  |  |  |  | 193 | 194 | 194 | Antineoplastic effect (T/C percent) [2, 8]: 164%
selenium oxychloride·quinoline complex [Compound 5] |  |  |  |  |  | >16 mg/kg/day x7 | 131 | 199 | 269 | Antineoplastic effect (T/C percent) [2, 10]: 131.4%; Antineoplastic effect (T/C percent) [2, 4]: 156.0%; Antineoplastic effect (T/C percent) [2, 6]: 181.8%
selenium oxychloride·pyridine complex [Compound 4] |  |  |  |  |  | 8 - 16 mg/kg/day x7 | 218 | 270 | 297 | Antineoplastic effect (T/C percent) [2, 10]: 178.6%; Antineoplastic effect (T/C percent) [2, 4]: 188.1%; Antineoplastic effect (T/C percent) [2, 6]: 200.8%; Number of colonies ([3]; dose 0.5 µg/plate): 213; inhibition rate ([3]; dose 0.5 µg/plate): 23.0%; Number of colonies ([3]; dose 1 µg/plate): 192; inhibition rate ([3]; dose 1 µg/plate): 32.8%; Number of colonies ([3]; dose 5 µg/plate): 180; inhibition rate ([3]; dose 5 µg/plate): 37.7%; Number of colonies ([3]; dose 10 µg/plate): 144; inhibition rate ([3]; dose 10 µg/plate): 52.5%; Number of colonies ([3]; dose 50 µg/plate): 93; inhibition rate ([3]; dose 50 µg/plate): 73.4%; Number of colonies ([3]; dose 100 µg/plate): 87; inhibition rate ([3]; dose 100 µg/plate): 75.8%; Number of colonies ([3]; dose 500 µg/plate): 41; inhibition rate ([3]; dose 500 µg/plate): 94.7%
selenium oxybromide·dioxane complex [Compound 8] |  |  |  |  |  | 8 - 16 mg/kg/day x7 | 182 | 226 | 228 | 
selenium oxychloride·dioxane complex [Compound 7] |  |  |  |  |  | 8 - 16 mg/kg/day x7 | 211 | 225 | 194 | 
selenium oxychloride [Compound 3] |  |  |  |  |  | 6 mg/kg/day x7 |  |  |  | Antineoplastic effect (T/C percent) ([2]; dose 0.75 mg/kg, observation period 60 days): 141%; Antineoplastic effect (T/C percent) ([2]; dose 1.5 mg/kg, observation period 60 days): 222%; Antineoplastic effect (T/C percent) ([2]; dose 3.0 mg/kg, observation period 60 days): 168%; Antineoplastic effect (T/C percent) ([2]; dose 6.0 mg/kg, observation period 60 days): 105%; Number of colonies ([3]; dose 0.5 µg/plate): 205; inhibition rate ([3]; dose 0.5 µg/plate): 30.3%; Number of colonies ([3]; dose 1 µg/plate): 230; inhibition rate ([3]; dose 1 µg/plate): 22.0%; Number of colonies ([3]; dose 5 µg/plate): 154; inhibition rate ([3]; dose 5 µg/plate): 52.0%; Number of colonies ([3]; dose 10 µg/plate): 132; inhibition rate ([3]; dose 10 µg/plate): 60.6%; Number of colonies ([3]; dose 50 µg/plate): 72; inhibition rate ([3]; dose 50 µg/plate): 84.3%; Number of colonies ([3]; dose 100 µg/plate): 70; inhibition rate ([3]; dose 100 µg/plate): 85.6%; Number of colonies ([3]; dose 500 µg/plate): 27; inhibition rate ([3]; dose 500 µg/plate): 100%
selenium tetrabromide [Compound 20] |  |  |  |  |  | 8-16 mg/kg/day x7 | 196 | 272 | 183 | 
selenium oxychloride·isoquinoline complex [Compound 6] |  |  |  |  |  |  | 211 | 206 | 187 | Antineoplastic effect (T/C percent) [2, 10]: 158.5%; Antineoplastic effect (T/C percent) [2, 4]: 164.8%; Antineoplastic effect (T/C percent) [2, 6]: 162.9%
selenium tetrachloride [Compound 19] |  |  |  |  |  | >16 mg/kg/day x7 | 179 | 249 | 183 | Antineoplastic effect (T/C percent) [2, 8]: 167%
O=[Se](OCCCl)OCCCl [Compound 12, di(2-chloroethyl) selenite] | 8 | 225 | 194 | 65 | 197 |  |  |  |  | 
CC(C)O[Se](=O)OC(C)C [Compound 11, diisopropyl selenite] | 4 to 8 | 236 | 126 | 14 | 204 |  |  |  |  | 
